Data reported in paper PMC7862302, “Self-assembling thermostable chimeras as new platform for arsenic biosensing” (Scientific Reports, 2021).

Columns and labels:
ArsC-Vmh2 = molecular target: T1, ArsC-Vmh2; format: binding, Thermus thermophilus; settings: chimera immobilised on gold; 50 mM Tris-HCl pH 7.5, 60 °C, 1 h incubation; detection in 1 M HCl; read-out: KAsIII (converted)
T1 construct: single-chain fusion: TtArsC (N-terminal), 15-residue flexible linker, Vmh2 of Pleurotus ostreatus, thrombin site LVPRGS, C-terminal His-tag; with Hydrophobin Vmh2 (Pleurotus ostreatus)

Vmh2-ArsC = molecular target: T2, Vmh2-ArsC; format: binding, Thermus thermophilus; settings: chimera immobilised on gold; 50 mM Tris-HCl pH 7.5, 60 °C, 1 h incubation; detection in 1 M HCl; read-out: KAsIII (converted)
T2 construct: single-chain fusion: Vmh2 of Pleurotus ostreatus (N-terminal), 15-residue flexible linker, TtArsC, thrombin site LVPRGS, C-terminal His-tag; with Hydrophobin Vmh2 (Pleurotus ostreatus)

O=[As]O [As(III)]
Kd (ArsC-Vmh2): 1.54 mM
Kd (Vmh2-ArsC): 833 µM
